Data: PubChem BioAssay AID256 (DTP/NCI, 2004)
“And” between values parts separate entries of the source, which are not always exact repeats. Identical values can stand only once. Toxic doses and inconclusive results are not listed. Residues, ends and D or L forms follow the SMILES beside them. *: point of attachment. Cbz = O=C(OCc1ccccc1)*

Test system: CD2F1 mice, L1210 leukemia ip, survival T/C
Test: NCI In Vivo Anticancer Drug Screen. Data for tumor model L1210 Leukemia (intraperitoneal) in CD2F1 (CDF1) mice
Conditions: higher = longer survival
Outline: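 In this screen, transplantable tumors were grown in mice given either the compound or its vehicle. Results were expressed as the treated measurement relative to the control measurement.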

[1] = endpoint: mean survival time, dose: 100.0 mg/kg/injection, schedule: Q01DX009 (ip), vehicle: saline with Tween-80
[2] = endpoint: mean survival time, dose: 100.0 mg/kg/injection, schedule: Q04DX003 (ip), vehicle: saline with Tween-80
[3] = endpoint: mean survival time, dose: 200.0 mg/kg/injection, schedule: Q01DX009 (ip), vehicle: saline with Tween-80
[4] = endpoint: mean survival time, dose: 200.0 mg/kg/injection, schedule: Q04DX003 (ip), vehicle: saline with Tween-80
[5] = endpoint: mean survival time, dose: 400.0 mg/kg/injection, schedule: Q01DX009 (ip), vehicle: saline with Tween-80
[6] = endpoint: mean survival time, dose: 400.0 mg/kg/injection, schedule: Q04DX003 (ip), vehicle: saline with Tween-80
[7] = endpoint: mean survival time, dose: 25.0 mg/kg/injection, schedule: Q01DX009 (ip), vehicle: saline with Tween-80
[8] = endpoint: mean survival time, dose: 75.0 mg/kg/injection, schedule: Q01DX001 (ip), vehicle: other
[9] = endpoint: mean survival time, dose: 150.0 mg/kg/injection, schedule: Q01DX001 (ip), vehicle: other
[10] = endpoint: mean survival time, dose: 100.0 mg/kg/injection, schedule: Q01DX001 (ip), vehicle: Klucel (hydroxypropylcellulose) (HPC)
[11] = endpoint: mean survival time, dose: 200.0 mg/kg/injection, schedule: Q01DX001 (ip), vehicle: Klucel (hydroxypropylcellulose) (HPC)
[12] = endpoint: mean survival time, dose: 400.0 mg/kg/injection, schedule: Q01DX001 (ip), vehicle: Klucel (hydroxypropylcellulose) (HPC)
[13] = endpoint: mean survival time, dose: 25.0 mg/kg/injection, schedule: Q01DX001 (ip), vehicle: saline with Tween-80

For `CN(Cc1cnc2nc(N)nc(N)c2n1)c1ccc(C(=O)NC(CCC(=O)NC(CCC(=O)NC(CCC(=O)O)C(=O)O)C(=O)O)C(=O)O)cc1` (stereo not given), the T/C (endpoint: mean survival time, dose: 0.5 mg/kg/injection, schedule: Q01DX005 (ip), vehicle: sodium bicarbonate) was 98 % of control, the T/C (endpoint: mean survival time, dose: 1.0 mg/kg/injection, schedule: Q01DX005 (ip), vehicle: sodium bicarbonate) was 111 % of control and 112 % of control and the T/C (endpoint: mean survival time, dose: 2.0 mg/kg/injection, schedule: Q01DX005 (ip), vehicle: sodium bicarbonate) was 114 % of control and 121 % of control. The T/C (endpoint: mean survival time, dose: 8.0 mg/kg/injection, schedule: Q01DX005 (ip), vehicle: sodium bicarbonate) was 152 % of control and 153 % of control and the T/C (endpoint: mean survival time, dose: 16.0 mg/kg/injection, schedule: Q01DX005 (ip), vehicle: sodium bicarbonate) was 158 % of control.

With `CC(=O)N(C)N=Nc1ccc(Cl)cc1` the T/C (endpoint: mean survival time, dose: 25.0 mg/kg/injection, schedule: Q04DX003 (ip), vehicle: Klucel (hydroxypropylcellulose) (HPC)) was 109 % of control, the T/C (endpoint: mean survival time, dose: 50.0 mg/kg/injection, schedule: Q04DX003 (ip), vehicle: Klucel (hydroxypropylcellulose) (HPC)) was 105 % of control and the T/C (endpoint: mean survival time, dose: 100.0 mg/kg/injection, schedule: Q04DX003 (ip), vehicle: Klucel (hydroxypropylcellulose) (HPC)) was 103 % of control. The T/C (endpoint: mean survival time, dose: 200.0 mg/kg/injection, schedule: Q04DX003 (ip), vehicle: Klucel (hydroxypropylcellulose) (HPC)) was 100 % of control.

`O=C(NCCC1CCC2OC2C1)c1ccccc1` (stereo not given) was tested, and the T/C [1] was 96 % of control, the T/C [2] was 107 % of control and the T/C [3] was 98 % of control. For the same compound, the T/C [4] was 100 % of control, the T/C [5] was 96 % of control and the T/C [6] was 94 % of control.

With `CC1=C/C(=C/c2ccccc2)CC(C)(C)C1` (tested in a mixture with another compound) the T/C [7] was 105 % of control, the T/C (endpoint: mean survival time, dose: 50.0 mg/kg/injection, schedule: Q01DX009 (ip), vehicle: saline with Tween-80) was 103 % of control and the T/C [1] was 95 % of control. For the same compound, the T/C [2] was 100 % of control.

In the case of `N=C(N)SSCc1ccco1`, the T/C (endpoint: mean survival time, dose: 5.0 mg/kg/injection, schedule: Q04DX002 (ip), vehicle: saline with Tween-80) is reported as 96 % of control, the T/C (endpoint: mean survival time, dose: 10.0 mg/kg/injection, schedule: Q04DX002 (ip), vehicle: saline with Tween-80) is reported as 103 % of control and the T/C (endpoint: mean survival time, dose: 20.0 mg/kg/injection, schedule: Q04DX002 (ip), vehicle: saline with Tween-80) is reported as 100 % of control.

For `Cc1c(C)c(CSC#N)c(C)c(C)c1CSC#N`, the T/C (endpoint: mean survival time, dose: 75.0 mg/kg/injection, schedule: Q04DX003 (ip), vehicle: saline) was 98 % of control, the T/C (endpoint: mean survival time, dose: 150.0 mg/kg/injection, schedule: Q04DX003 (ip), vehicle: saline) was 102 % of control and the T/C (endpoint: mean survival time, dose: 300.0 mg/kg/injection, schedule: Q04DX003 (ip), vehicle: saline) was 95 % of control.

For `CNc1ncn(-c2c(C)cccc2C)c(=O)n1`, the T/C (endpoint: median survival time, dose: 3.12 mg/kg/injection, schedule: Q01DX005 (ip), vehicle: Klucel (hydroxypropylcellulose) (HPC)) was 101 % of control, the T/C (endpoint: median survival time, dose: 6.25 mg/kg/injection, schedule: Q01DX005 (ip), vehicle: Klucel (hydroxypropylcellulose) (HPC)) was 97 % of control and the T/C (endpoint: median survival time, dose: 12.5 mg/kg/injection, schedule: Q01DX005 (ip), vehicle: Klucel (hydroxypropylcellulose) (HPC)) was 102 % of control. The T/C (endpoint: median survival time, dose: 25.0 mg/kg/injection, schedule: Q01DX005 (ip), vehicle: Klucel (hydroxypropylcellulose) (HPC)) was 100 % of control, the T/C (endpoint: median survival time, dose: 50.0 mg/kg/injection, schedule: Q01DX005 (ip), vehicle: Klucel (hydroxypropylcellulose) (HPC)) was 108 % of control and the T/C (endpoint: median survival time, dose: 50.0 mg/kg/injection, schedule: Q01DX005 (ip), vehicle: saline with Tween-80) was 119 % of control and 98 % of control and 102 % of control. The T/C (endpoint: median survival time, dose: 100.0 mg/kg/injection, schedule: Q01DX005 (ip), vehicle: saline with Tween-80) was 123 % of control and 98 % of control and 110 % of control and the T/C (endpoint: median survival time, dose: 200.0 mg/kg/injection, schedule: Q01DX005 (ip), vehicle: saline with Tween-80) was 122 % of control and 107 % of control.

With `CC(C)c1ccc2cc(C(C)C)ccc2c1` the T/C [2] was 86 % of control, the T/C [4] was 92 % of control and the T/C [6] was 92 % of control.

With `CC1(C)C2CC=C(CC3CC(=O)OC3=O)C1C2` (stereo not given) the T/C [8] was 97 % of control, the T/C [9] was 102 % of control and the T/C (endpoint: mean survival time, dose: 300.0 mg/kg/injection, schedule: Q01DX001 (ip), vehicle: other) was 108 % of control.

In the case of `CCC1([N+](=O)[O-])COC(c2ccc(Cl)cc2)OC1` (stereo not given), the T/C [10] is reported as 104 % of control, the T/C [11] is reported as 86 % of control and the T/C [12] is reported as 111 % of control.

With `CC(=O)[O][Hg][c]1ccccc1` the T/C (endpoint: mean survival time, dose: 12.5 mg/kg/injection, schedule: Q01DX001 (ip), vehicle: Klucel (hydroxypropylcellulose) (HPC)) was 100 % of control, the T/C (endpoint: mean survival time, dose: 12.5 mg/kg/injection, schedule: Q01DX009 (ip), vehicle: saline with Tween-80) was 106 % of control and the T/C (endpoint: mean survival time, dose: 25.0 mg/kg/injection, schedule: Q01DX001 (ip), vehicle: Klucel (hydroxypropylcellulose) (HPC)) was 106 % of control. For the same compound, the T/C [7] was 98 % of control.

In the case of `O/N=C1\c2ccccc2-c2ccc(F)cc21`, the T/C (endpoint: mean survival time, dose: 50.0 mg/kg/injection, schedule: Q01DX001 (ip), vehicle: carboxymethylcellulose (CMC)) is reported as 104 % of control, the T/C (endpoint: mean survival time, dose: 100.0 mg/kg/injection, schedule: Q01DX001 (ip), vehicle: carboxymethylcellulose (CMC)) is reported as 108 % of control and the T/C (endpoint: mean survival time, dose: 200.0 mg/kg/injection, schedule: Q01DX001 (ip), vehicle: carboxymethylcellulose (CMC)) is reported as 104 % of control. For the same compound, the T/C (endpoint: mean survival time, dose: 400.0 mg/kg/injection, schedule: Q01DX001 (ip), vehicle: carboxymethylcellulose (CMC)) was 102 % of control.

In the case of `CC(C)CN1C(=O)C2C3CCC(O3)C2C1=O` (stereo not given), the T/C (endpoint: mean survival time, dose: 100.0 mg/kg/injection, schedule: Q04DX002 (ip), vehicle: saline with Tween-80) is reported as 95 % of control, the T/C (endpoint: mean survival time, dose: 200.0 mg/kg/injection, schedule: Q04DX002 (ip), vehicle: saline with Tween-80) is reported as 91 % of control and the T/C (endpoint: mean survival time, dose: 400.0 mg/kg/injection, schedule: Q04DX002 (ip), vehicle: saline with Tween-80) is reported as 102 % of control.

In the case of `Nc1nc(N)n(-c2ccccn2)n1`, the T/C [8] is reported as 101 % of control and the T/C [9] is reported as 97 % of control.

`O=C(O)CNC(=O)CNC(=O)CNC(=O)OCc1ccccc1` (Cbz-Gly-Gly-Gly-OH) was tested, and the T/C [2] was 96 % of control, the T/C [4] was 100 % of control and the T/C [6] was 97 % of control.

With `COc1cc(C)cc(N)n1` the T/C (endpoint: mean survival time, dose: 6.25 mg/kg/injection, schedule: Q01DX001 (ip), vehicle: saline with Tween-80) was 89 % of control, the T/C (endpoint: mean survival time, dose: 12.5 mg/kg/injection, schedule: Q01DX001 (ip), vehicle: saline with Tween-80) was 92 % of control and the T/C [13] was 89 % of control.

For `O=[N+]([O-])c1ccc(O/N=C(\CN2CCCC2)c2ccc(Cl)cc2)c([N+](=O)[O-])c1`, the T/C [10] was 90 % of control, the T/C [11] was 87 % of control and the T/C [12] was 98 % of control.

`Cc1cccc(NC(=O)C2CCC(C)(C(=O)O)C2(C)C)c1` (stereo not given) was tested, and the T/C [2] was 94 % of control and the T/C [4] was 90 % of control.

`O=S(=O)(O)C(Nc1ccccn1)c1ccccc1` (stereo not given) was tested, and the T/C [13] was 98 % of control, the T/C (endpoint: mean survival time, dose: 50.0 mg/kg/injection, schedule: Q01DX001 (ip), vehicle: saline with Tween-80) was 106 % of control and the T/C (endpoint: mean survival time, dose: 100.0 mg/kg/injection, schedule: Q01DX001 (ip), vehicle: saline with Tween-80) was 106 % of control.

With `CC(=O)N(c1nc(Cl)c2cc[nH]c2n1)C1OC(CO)C(O)C1O` (stereo not given) the T/C (endpoint: mean survival time, dose: 12.5 mg/kg/injection, schedule: Q01DX005 (ip), vehicle: water) was 100 % of control, the T/C (endpoint: mean survival time, dose: 25.0 mg/kg/injection, schedule: Q01DX005 (ip), vehicle: water) was 100 % of control and the T/C (endpoint: mean survival time, dose: 50.0 mg/kg/injection, schedule: Q01DX005 (ip), vehicle: water) was 101 % of control. For the same compound, the T/C (endpoint: mean survival time, dose: 100.0 mg/kg/injection, schedule: Q01DX005 (ip), vehicle: water) was 101 % of control and the T/C (endpoint: mean survival time, dose: 200.0 mg/kg/injection, schedule: Q01DX005 (ip), vehicle: water) was 103 % of control.

For `COC(=O)C(CSCSCc1ccccc1)NC(=O)C(CSCc1ccccc1)NC(=O)CCNC(=O)OCc1ccccc1` (stereo not given), the T/C (endpoint: mean survival time, dose: 25.0 mg/kg/injection, schedule: Q01DX009 (ip), vehicle: Klucel (hydroxypropylcellulose) (HPC)) was 96 % of control, the T/C (endpoint: mean survival time, dose: 50.0 mg/kg/injection, schedule: Q01DX009 (ip), vehicle: Klucel (hydroxypropylcellulose) (HPC)) was 93 % of control and the T/C (endpoint: mean survival time, dose: 100.0 mg/kg/injection, schedule: Q01DX009 (ip), vehicle: Klucel (hydroxypropylcellulose) (HPC)) was 88 % of control. The T/C (endpoint: mean survival time, dose: 200.0 mg/kg/injection, schedule: Q01DX009 (ip), vehicle: Klucel (hydroxypropylcellulose) (HPC)) was 93 % of control and the T/C (endpoint: mean survival time, dose: 400.0 mg/kg/injection, schedule: Q01DX009 (ip), vehicle: Klucel (hydroxypropylcellulose) (HPC)) was 90 % of control.

With `NC(=O)C(Cl)(Cl)Cl` the T/C [1] was 107 % of control, the T/C (endpoint: mean survival time, dose: 100.0 mg/kg/injection, schedule: Q04DX003 (ip), vehicle: saline) was 103 % of control and the T/C [3] was 104 % of control. The T/C (endpoint: mean survival time, dose: 200.0 mg/kg/injection, schedule: Q04DX003 (ip), vehicle: saline) was 99 % of control, the T/C [5] was 103 % of control and the T/C (endpoint: mean survival time, dose: 400.0 mg/kg/injection, schedule: Q04DX003 (ip), vehicle: saline) was 99 % of control.
